Entries after “also recorded” stand apart in the source; their conditions may differ.
test system: microorganisms (e.g., bacteria, yeasts, fungi); assay: Targeting peptide binding to target microorganisms (Table 3); details: microorganism(s) the targeting peptide binds; peptide binding conducted in aqueous buffers varied by peptide solubility, preferably 1x PBS

Row | Substance | Target(s)
1 | PF-487 (MYKAIAVLAMTIMAFFIFVYPFFIVGLILG; Peptide with targeting and/or antimicrobial activity) | S. mutans; also recorded: E. coli
2 | PF-488 (YPNEQGHHKNNLKNIIIE; Peptide with targeting and/or antimicrobial activity) | S. mutans; also recorded: E. coli
3 | PF-489 (KVDRVSTTITEKIK; Peptide with targeting and/or antimicrobial activity) | S. mutans
4 | PF-490 (RLILVSGNATVQK; Peptide with targeting and/or antimicrobial activity) | S. mutans; also recorded: E. coli
5 | PF-491 (IHQYSSKPDIVGQEAKTVQQINS; Peptide with targeting and/or antimicrobial activity) | S. mutans; also recorded: E. coli
6 | PF-492 (IQIDAASFYSISKSTIK; Peptide with targeting and/or antimicrobial activity) | S. mutans; also recorded: B. subtilis; also recorded: E. coli
7 | PF-493 (PGAFFFCRGRGCWCGIGW; Peptide with targeting and/or antimicrobial activity) | S. mutans; also recorded: B. subtilis; also recorded: E. coli
8 | PF-494 (FTEPLRPLQAKGQIISIKPSTSSS; Peptide with targeting and/or antimicrobial activity) | S. mutans
9 | PF-495 (KGIYKKRTY; Peptide with targeting and/or antimicrobial activity) | S. mutans; also recorded: E. coli
10 | PF-496 (EVTKRLVALAQQQLRG; Peptide with targeting and/or antimicrobial activity) | S. mutans; also recorded: E. coli
11 | PF-498 (MSEEEEVSEKVYNYLRRNEFFEVRKEEFSA; Peptide with targeting and/or antimicrobial activity) | S. mutans; also recorded: E. coli
12 | PF-500 (MGIFKEEKIKFIDCKGEEVILKIKIKDIKK; Peptide with targeting and/or antimicrobial activity) | S. mutans; also recorded: E. coli
13 | PF-501 (GSTAHKSPIGSTNNQWGMKKTPTD; Peptide with targeting and/or antimicrobial activity) | S. mutans
14 | PF-502 (NKGKQMQDQTGKQPIVDNG; Peptide with targeting and/or antimicrobial activity) | S. mutans
15 | PF-503 (VVTLKDIVAVIEDQGYDVQ; Peptide with targeting and/or antimicrobial activity) | S. mutans
16 | PF-504 (ILSVELSTKTSASGS; Peptide with targeting and/or antimicrobial activity) | S. mutans; also recorded: E. coli
17 | PF-505 (GYTKDPGTGI; Peptide with targeting and/or antimicrobial activity) | S. mutans
18 | PF-506 (SGRGFALIVVLFILLIIVGAACIR; Peptide with targeting and/or antimicrobial activity) | S. mutans; also recorded: E. coli
19 | PF-507 (LALSIANLFKKKA; Peptide with targeting and/or antimicrobial activity) | S. mutans; also recorded: E. coli
20 | PF-508 (VSTFGKVVKVVDEK; Peptide with targeting and/or antimicrobial activity) | S. mutans
21 | PF-509 (EAKVQAKGEQIACNNY; Peptide with targeting and/or antimicrobial activity) | S. mutans; also recorded: B. subtilis; also recorded: E. coli
22 | PF-510 (WYLYKKQSNQNDRGIPK; Peptide with targeting and/or antimicrobial activity) | S. mutans; also recorded: E. coli
23 | PF-568 (TQAVQVKTAQAQQQ; Peptide with targeting and/or antimicrobial activity) | S. epidermidis
24 | PF-570 (KKFPTEESHIQAVLEFKKLTEHPSG; Peptide with targeting and/or antimicrobial activity) | S. pneumoniae; also recorded: C. jeikeium

same assay, conditions: peptide binding in aqueous buffers varied by peptide solubility; preferably 1x PBS

Row | Substance | Target(s) (microorganisms bound by the targeting peptide)
25 | PF-641 (SWKCHHLAIGGSWKCHHLAI; Peptide with targeting and/or antimicrobial activity) | S. epidermidis and M. luteus and E. coli and C. albicans and MRSA and E. faecalis and C. jeikeium and C. jejuni
26 | PF-648 (ARRYPAAGS; Peptide with targeting and/or antimicrobial activity) | S. mutans; also recorded: E. coli
27 | PF-650 (IRSDQPGRQSRSSPRWPTGAGRHR; Peptide with targeting and/or antimicrobial activity) | Mycobacteria spp
28 | PF-669 (RADRIESYPADGDRVITLWRNPYR; Peptide with targeting and/or antimicrobial activity) | Mycobacteria spp
29 | PF-671 (TVSAFRTVH; Peptide with targeting and/or antimicrobial activity) | S. mutans; also recorded: E. coli
30 | PF-673 (VRRLRM; Peptide with targeting and/or antimicrobial activity) | S. mutans; also recorded: E. coli
31 | PF-674 (DGCDSEPALTYR; Peptide with targeting and/or antimicrobial activity) | S. mutans; also recorded: E. coli
32 | PF-676 (AEYRGL; Peptide with targeting and/or antimicrobial activity) | S. mutans; also recorded: E. coli
33 | PF-678 (RDRRWTRRDMYDWLESARV; Peptide with targeting and/or antimicrobial activity) | Mycobacteria spp
34 | PF-679 (CRARFIRR; Peptide with targeting and/or antimicrobial activity) | S. mutans; also recorded: E. coli
35 | PF-689 (SAPSG; Peptide with targeting and/or antimicrobial activity) | S. mutans; also recorded: E. coli
36 | PF-701 (PRGAQSGHG; Peptide with targeting and/or antimicrobial activity) | S. mutans
37 | PF-703 (MTTVDNIVGLVIAVALMAFLFAALLFPEKF; Peptide with targeting and/or antimicrobial activity) | Mycobacteria spp
38 | PF-705 (GEEEGTVAD; Peptide with targeting and/or antimicrobial activity) | S. mutans; also recorded: E. coli
39 | PF-706 (LGYGAWIGCGLGLNGFHRID; Peptide with targeting and/or antimicrobial activity) | L. pneumophila
40 | PF-707 (IDPESIVTTNNKQDNVDEQ; Peptide with targeting and/or antimicrobial activity) | S. mutans; also recorded: E. coli

Row | Substance | Target(s) (microorganisms bound by the targeting peptide)
41 | PF-709 (NKKHSPMD; Peptide with targeting and/or antimicrobial activity) | S. mutans
42 | PF-711 (KTAGPTGTIYKTN; Peptide with targeting and/or antimicrobial activity) | S. mutans
43 | PF-712 (QIYRHVHKVQAKSANLRLY; Peptide with targeting and/or antimicrobial activity) | S. mutans; also recorded: E. coli
44 | PF-714 (FVVTQRMLRMYKK; Peptide with targeting and/or antimicrobial activity) | L. pneumophila
45 | PF-716 (HGENHHHKSDEKDNDSSEKKD; Peptide with targeting and/or antimicrobial activity) | S. mutans
46 | PF-717 (PQSEVTFENIYAPKANGGGLYGI; Peptide with targeting and/or antimicrobial activity) | E. coli
47 | PF-720 (SLDMGK; Peptide with targeting and/or antimicrobial activity) | S. mutans
48 | PF-724 (CYRFLTPKRPTRIS; Peptide with targeting and/or antimicrobial activity) | L. pneumophila
49 | PF-727 (AYARCRHDYPFTLGQMQTH; Peptide with targeting and/or antimicrobial activity) | S. mutans; also recorded: E. coli
50 | PF-728 (AIGQEQDRREYYYYSGYPYYY; Peptide with targeting and/or antimicrobial activity) | S. mutans; also recorded: E. coli
51 | PF-731 (RHKLIRLPLSESVFCFLNNPKI; Peptide with targeting and/or antimicrobial activity) | L. pneumophila
52 | PF-732 (DRPSQTTHHTLSSSRITGPS; Peptide with targeting and/or antimicrobial activity) | E. coli
53 | PF-733 (VISRQMGSEAVLELFIIM; Peptide with targeting and/or antimicrobial activity) | S. mutans; also recorded: E. coli
54 | PF-735 (YDPLFPNDKN; Peptide with targeting and/or antimicrobial activity) | S. mutans; also recorded: E. coli
55 | PF-750 (AESSPAKTTA; Peptide with targeting and/or antimicrobial activity) | M. luteus; also recorded: C. jeikeium
56 | PF-751 (AESSPAQETT; Peptide with targeting and/or antimicrobial activity) | S. epidermidis; also recorded: E. coli; also recorded: C. albicans; also recorded: C. jeikeium
